Reference: ChEMBL document CHEMBL1128468, “Amino acid side chain descriptors for quantitative structure-activity relationship studies of peptide analogues” (J Med Chem, 1995)
Peptide text beside a SMILES is read from it.

Experiments:
[1] = Bitter tasting threshold was expressed as log 1/T.; assay type: functional
[2] = target: Angiotensin-converting enzyme (Homo sapiens, UniProt P12821); experiment: Biological activity was measured against Angiotensin I converting enzyme; conditions: read-out: Log 1/IC50 (converted)
[3] = target: T1, Oxytocin receptor (Rattus norvegicus, UniProt P70536); experiment: Biological activity against Oxytocin receptor in rat
T1 sequence (P70536 whole entry): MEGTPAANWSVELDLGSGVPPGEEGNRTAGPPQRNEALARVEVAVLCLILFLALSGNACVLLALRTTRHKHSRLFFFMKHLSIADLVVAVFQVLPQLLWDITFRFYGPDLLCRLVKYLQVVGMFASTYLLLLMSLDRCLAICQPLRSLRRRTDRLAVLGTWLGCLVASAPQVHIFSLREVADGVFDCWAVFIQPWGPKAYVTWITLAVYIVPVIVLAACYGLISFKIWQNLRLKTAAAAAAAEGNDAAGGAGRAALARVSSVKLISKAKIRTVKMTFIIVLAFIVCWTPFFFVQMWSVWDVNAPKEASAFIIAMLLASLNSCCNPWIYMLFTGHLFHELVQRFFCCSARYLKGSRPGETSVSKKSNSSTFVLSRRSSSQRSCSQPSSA

Angiotensin-converting enzyme, sequence (P12821 whole entry): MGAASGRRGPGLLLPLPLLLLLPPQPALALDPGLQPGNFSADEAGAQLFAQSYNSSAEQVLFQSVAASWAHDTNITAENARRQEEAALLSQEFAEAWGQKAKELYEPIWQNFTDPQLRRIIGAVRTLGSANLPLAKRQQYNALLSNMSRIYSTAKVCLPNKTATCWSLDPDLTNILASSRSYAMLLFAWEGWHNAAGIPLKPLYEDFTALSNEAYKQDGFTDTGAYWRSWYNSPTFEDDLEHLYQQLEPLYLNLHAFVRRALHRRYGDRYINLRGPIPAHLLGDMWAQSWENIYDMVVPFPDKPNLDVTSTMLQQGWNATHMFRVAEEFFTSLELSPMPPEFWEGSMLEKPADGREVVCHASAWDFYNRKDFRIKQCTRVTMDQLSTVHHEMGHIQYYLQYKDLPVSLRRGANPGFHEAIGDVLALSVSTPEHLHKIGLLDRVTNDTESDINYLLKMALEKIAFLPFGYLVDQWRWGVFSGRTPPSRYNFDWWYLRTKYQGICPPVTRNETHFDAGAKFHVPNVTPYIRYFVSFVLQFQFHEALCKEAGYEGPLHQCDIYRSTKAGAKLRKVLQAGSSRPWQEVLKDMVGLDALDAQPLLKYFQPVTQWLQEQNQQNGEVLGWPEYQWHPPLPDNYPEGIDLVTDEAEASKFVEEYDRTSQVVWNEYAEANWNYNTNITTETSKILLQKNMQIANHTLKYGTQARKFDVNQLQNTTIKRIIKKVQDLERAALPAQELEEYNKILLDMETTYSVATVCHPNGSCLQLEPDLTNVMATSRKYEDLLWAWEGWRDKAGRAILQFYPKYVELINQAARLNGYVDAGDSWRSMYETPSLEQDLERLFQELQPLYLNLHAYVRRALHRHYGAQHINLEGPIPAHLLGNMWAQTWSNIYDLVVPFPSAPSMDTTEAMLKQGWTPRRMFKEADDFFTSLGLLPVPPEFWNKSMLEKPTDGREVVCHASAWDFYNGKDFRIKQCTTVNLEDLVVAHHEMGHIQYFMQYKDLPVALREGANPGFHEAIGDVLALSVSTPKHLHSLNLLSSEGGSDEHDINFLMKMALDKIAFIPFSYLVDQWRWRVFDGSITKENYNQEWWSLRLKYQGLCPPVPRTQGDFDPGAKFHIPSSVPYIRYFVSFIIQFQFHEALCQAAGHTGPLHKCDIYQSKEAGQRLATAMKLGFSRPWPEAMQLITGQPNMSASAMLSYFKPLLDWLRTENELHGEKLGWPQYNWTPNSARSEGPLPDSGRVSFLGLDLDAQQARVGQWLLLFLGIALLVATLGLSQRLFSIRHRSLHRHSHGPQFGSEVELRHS

In the case of NCC(=O)N[C@@H](Cc1ccccc1)C(=O)O (H-Gly-Phe-OH), the Log 1/T [1] is reported as 1.8 and the IC50 [2] is reported as 631 µM.

Compound CC[C@H](C)[C@H](NC(=O)[C@@H](Cc1c[nH]c2ccccc12)NC(=O)CC1(S)CCCCC1)C(=O)N[C@H](CCCNC(N)=O)C(=O)N[C@@H](CC(N)=O)C(=O)N[C@@H](CS)C(=O)N1CCC[C@H]1C(=O)N[C@@H](CCCN=C(N)N)C(=O)NCC(N)=O has a pA2 [3] of 5.51.

Compound CCC(C)[C@H](NC(=O)[C@@H](N)[C@@H](C)CC)C(=O)O (single isomer, unassigned) has a Log 1/T [1] of 2.26.

Compound CC[C@H](C)[C@H](NC(=O)[C@@H](Cc1c[nH]c2ccccc12)NC(=O)CC1(S)CCCCC1)C(=O)N[C@H](CCC(N)=O)C(=O)N[C@@H](CC(N)=O)C(=O)N[C@@H](CS)C(=O)N1CCC[C@H]1C(=O)N[C@@H](CCCN=C(N)N)C(=O)NCC(N)=O has a pA2 [3] of 5.24.

Compound CC[C@H](C)[C@@H]1NC(=O)[C@@H](Cc2c[nH]c3ccccc23)NC(=O)CC2(CCCCC2)SSC[C@@H](C(=O)N2CCC[C@H]2C(=O)N[C@@H](CCCN=C(N)N)C(=O)NCC(N)=O)NC(=O)[C@H](CC(N)=O)NC(=O)[C@@H]([C@H](C)O)NC1=O has a pA2 [3] of 4.95.

CC[C@H](C)[C@H](N)C(=O)N[C@H](C(=O)O)C(C)O (single isomer, unassigned) gave a Log 1/T [1] of 1.49.

Work on CC[C@H](C)[C@H](NC(=O)[C@@H](Cc1c[nH]c2ccccc12)NC(=O)CC1(S)CCCCC1)C(=O)N[C@H](CC(N)=O)C(=O)N[C@@H](CC(N)=O)C(=O)N[C@@H](CS)C(=O)N1CCC[C@H]1C(=O)N[C@@H](CCCN=C(N)N)C(=O)NCC(N)=O yielded a pA2 [3] of 5.41.

With C[C@H](N)C(=O)N[C@@H](Cc1ccccc1)C(=O)O the Log 1/T [1] was 1.72 and the IC50 [2] was 191 µM.

Work on CC[C@H](C)[C@@H]1NC(=O)[C@@H](Cc2c[nH]c3ccccc23)NC(=O)CC2(CCCCC2)SSC(C)(C)[C@H](C(=O)N2CCC[C@H]2C(=O)N[C@@H](CCCN=C(N)N)C(=O)NCC(N)=O)NC(=O)[C@H](CC(N)=O)NC(=O)[C@H](CCC(=O)O)NC1=O yielded a pA2 [3] of 7.98.

With CC(C)C[C@H](NC(=O)CN)C(=O)O the Log 1/T [1] was 1.68 and the IC50 [2] was 2510 µM.

For CC(C)C[C@H](NC(=O)[C@@H](N)C(C)C)C(=O)O (H-Val-Leu-OH), the Log 1/T [1] was 2.
